This assay deals with E. coli. In words: Disinfection effect of hydration liquids on catheters immersed in E. coli suspension. The assay is classed as cell-based. The settings on record: 4 hours immersion, incubated at 37 deg. C for 19.5 hours. The source says: In another line of experiments, hydration liquids with different types of disinfection mediums were used, and evaluated in respect of the disinfection effect. The hydration liquid comprised 5 wt % of PVP K30, and various disinfection mediums. As comparative examples, a hydration liquid with PVP K30 but without any disinfection medium was used, as well as a hydration liquid only comprising water. For the tests, catheters were first activated in a hydration liquid containing a disinfectant. Thereafter, the catheters were immersed in an E. coli suspension. The catheters were then rinsed in plain water, before again being immersed in the same hydration liquid used for the activation for 4 hours. Thereafter, the catheters were transferred into a growth medium and incubated at 37 deg. C for 19.5 hours. After this, it was determined whether, or not, bacterial growth had occurred during incubation.

For `O=[N+]([O-])[O-].[Ag+]` [Silver nitrate, silver nitrate], the Result after incubation entry reads like this: (disinfection medium 0.05 wt % in hydration liquid with 5 wt % PVP K30) “No growth”; (disinfection medium 0.2 wt % in hydration liquid with 5 wt % PVP K30) “No growth”. Regarding `OCl` [Sodium hypochlorite, sodium hypochlorite], the Result after incubation entry (disinfection medium 0.02 wt % in hydration liquid with 5 wt % PVP K30) is “No growth”.

In the case of `Oc1cc(Cl)ccc1Oc1ccc(Cl)cc1Cl` [Triclosan, triclosan], the Result after incubation result reads like this: (disinfection medium 0.075 wt % in hydration liquid with 5 wt % PVP K30) “No growth”; (disinfection medium 0.3 wt % in hydration liquid with 5 wt % PVP K30) “No growth”. benzalkonium chloride: the Result after incubation result (disinfection medium 0.025 wt % in hydration liquid with 5 wt % PVP K30) was “No growth” and the Result after incubation entry (disinfection medium 0.1 wt % in hydration liquid with 5 wt % PVP K30) was “No growth”.
